Measured values reported in patent US20230029496A1, “AMINO ACID ALTERNATIVE CURING SYSTEM” (THE TEXAS A&M UNIVERSITY SYSTEM, priority 2019, published 2023).
Several values for one entry are separate records, joined by “and”; a condition that tells them apart may be missing. Equal entries are not always repeated. Where two headings read alike, the source gives them in different places. Marks after values point to notes of the source that are not given here.

Legend:
[1] = test system: nitric oxide synthase system; details: pork, Phase II, without 547 ppm sodium erythorbate; for Residual Nitrite, LSMean main effect of Temperature: L-arginine
Protocol: (§1) Fresh ground meat (beef, pork or poultry) was separated in ˜0.5 Kg batches and mixed with 2% salt and 10% added water. […] Each individual batch was mixed (1 min) in a food processor, removed for temperature and pH analyses and then placed into a jerky extruder tube. Approximately 25 g of sample were extruded into 50 mL centrifuge, then capped and labeled and placed into a controlled water batch and heated to a designated internal endpoint temperature (132, 158, or 165° F.).
(§2) Samples also contained 547 ppm sodium erythorbate, a cure accelerator (Phase I) and without sodium erythorbate (Phase II). Samples were placed into test tubes and heated in a controlled water bath to 132, 158 and 165° F. Samples were held in a 40° F. cooler for seven days then tested for residual nitrite. Residual nitrite was tested after deproteinization for amino acid analysis by HPLC. Determination of nitrite (UV/VIS Spectrophotometric Method) was used to detect any residual nitrite for best results in detecting minute amounts of nitrite. Residual nitrite levels were read in a 96 well plate reader at 540 nm.
(§3) Both phases of the experiment were designed as a factorial (concentration level and endpoint temperature) randomized complete block design with three replications. […] Least squares means were generated and Tukey's HSD used to determine significance at P≤0.05.

[2] = test system: NOS system; assay: Residual nitrite in test beef frankfurters (Example 12); details: for Nitrite: 7 days of storage
Protocol: (§4) The remaining nonmeat ingredients were added (except the antimicrobial) and chopped at 2000 rpm for one minute. Protecta (sodium acetate antimicrobial) was added and the emulsion chopped at 4000 rpm for one minute. The emulsion was evacuated and placed into a vacuum assisted stuffer where each test emulsion was stuffed and twist linked into 22 mm cellulose casings weighing 40 g each. The frankfurter links were hung on smokehouse trucks, placed into a commercial smokehouse and thermally processed to 160° F. (Table 18).
(§5) After thermal processing and chilling (40° F.), the casings were peeled from the frankfurters and were vacuum packaged and stored under refrigerated conditions for residual nitrite and nitrosylation. […] This was done to determine if the L-arginine could the NOS system to generate sufficient NO for cure color development and residual nitrite for antioxidant and antimicrobial effect.

[3] = test system: nitric oxide synthase system; details: poultry; for Residual Nitrite, LSMean main effect of Temperature: L-arginine
Protocol: as §1, §2, §3

[4] = test system: NOS system; assay: NO-heme, total heme, nitrosylation in test beef frankfurters (Example 12)
Protocol: as §4, §5

[5] = 1000 ppm L-arginine with 547 ppm sodium erythorbate
[6] = 1000 ppm L-arginine, no cure accelerator
[7] = 5000 ppm L-arginine with 547 ppm sodium erythorbate
[8] = 5000 ppm L-arginine, no cure accelerator

## N=C(N)NCCC[C@H](N)C(=O)O [L-arginine]
[1]; 4000 ppm L-arginine, 132° F.
  Residual Nitrite, LSMean Conc × Temperature: 71.48^bc ppm
[1]; 4000 ppm L-arginine, 158° F.
  Residual Nitrite, LSMean Conc × Temperature: 150.78^a ppm
[1]; 4000 ppm L-arginine, 165° F.
  Residual Nitrite, LSMean Conc × Temperature: 85.70^bc ppm
[1]; 5000 ppm L-arginine
  Residual Nitrite, LSMean main effect of Concentration: 72.06^b ppm and 72.06 ppm
[1]; 5000 ppm L-arginine, 132° F.
  Residual Nitrite, LSMean Conc × Temperature: 59.74^c ppm
[1]; 5000 ppm L-arginine, 158° F.
  Residual Nitrite, LSMean Conc × Temperature: 77.63^bc ppm
[1]; 5000 ppm L-arginine, 165° F.
  Residual Nitrite, LSMean Conc × Temperature: 78.82^bc ppm
[1]; 132° F.
  Residual Nitrite, LSMean main effect of Temperature: 67.81^c ppm and 67.81 ppm
[1]; 158° F.
  Residual Nitrite, LSMean main effect of Temperature: 103.33^a ppm and 103.33 ppm
[1]; 165° F.
  Residual Nitrite, LSMean main effect of Temperature: 85.93^b ppm and 85.93 ppm
[2]; [5]
  Nitrite: 13 ppm and 13.43^bc ppm
[2]; [6]
  Nitrite: 8.02^d ppm
[2]; [7]
  Nitrite: 16 ppm and 15.87^b ppm
[2]; [8]
  Nitrite: 10.64^cd ppm
[2]; range over L-arginine treated frankfurters after 7 days of storage
  residual nitrite levels: 8.02 to 15.87 ppm
[3]; Phase I, with 547 ppm sodium erythorbate, 1000 ppm L-arginine
  Residual Nitrite, LSMean main effect of Concentration: 65.44^ab ppm and 65.44 ppm
[3]; Phase I, with 547 ppm sodium erythorbate, 1000 ppm L-arginine, 132° F.
  Residual Nitrite, LSMean Conc × Temp: 76.46^ab ppm
[3]; Phase I, with 547 ppm sodium erythorbate, 1000 ppm L-arginine, 158° F.
  Residual Nitrite, LSMean Conc × Temp: 60.52^abc ppm
[3]; Phase I, with 547 ppm sodium erythorbate, 1000 ppm L-arginine, 165° F.
  Residual Nitrite, LSMean Conc × Temp: 59.36^abc ppm
[3]; Phase I, with 547 ppm sodium erythorbate, 2000 ppm L-arginine
  Residual Nitrite, LSMean main effect of Concentration: 72.28^a ppm and 72.28 ppm
[3]; Phase I, with 547 ppm sodium erythorbate, 2000 ppm L-arginine, 132° F.
  Residual Nitrite, LSMean Conc × Temp: 63.44^abc ppm
[3]; Phase I, with 547 ppm sodium erythorbate, 2000 ppm L-arginine, 158° F.
  Residual Nitrite, LSMean Conc × Temp: 77.50^a ppm
[3]; Phase I, with 547 ppm sodium erythorbate, 2000 ppm L-arginine, 165° F.
  Residual Nitrite, LSMean Conc × Temp: 75.91^ab ppm
[3]; Phase I, with 547 ppm sodium erythorbate, 3000 ppm L-arginine
  Residual Nitrite, LSMean main effect of Concentration: 54.95^bc ppm and 54.95 ppm
[3]; Phase I, with 547 ppm sodium erythorbate, 3000 ppm L-arginine, 132° F.
  Residual Nitrite, LSMean Conc × Temp: 60.08^abc ppm
[3]; Phase I, with 547 ppm sodium erythorbate, 3000 ppm L-arginine, 158° F.
  Residual Nitrite, LSMean Conc × Temp: 65.81^abc ppm
[3]; Phase I, with 547 ppm sodium erythorbate, 3000 ppm L-arginine, 165° F.
  Residual Nitrite, LSMean Conc × Temp: 38.96^cd ppm
[3]; Phase I, with 547 ppm sodium erythorbate, 4000 ppm L-arginine
  Residual Nitrite, LSMean main effect of Concentration: 48.16^cd ppm and 48.16 ppm
[3]; Phase I, with 547 ppm sodium erythorbate, 4000 ppm L-arginine, 132° F.
  Residual Nitrite, LSMean Conc × Temp: 50.99^a-d ppm
[3]; Phase I, with 547 ppm sodium erythorbate, 4000 ppm L-arginine, 158° F.
  Residual Nitrite, LSMean Conc × Temp: 49.31^a-d ppm
[3]; Phase I, with 547 ppm sodium erythorbate, 4000 ppm L-arginine, 165° F.
  Residual Nitrite, LSMean Conc × Temp: 44.17^cd ppm
[3]; Phase I, with 547 ppm sodium erythorbate, 5000 ppm L-arginine
  Residual Nitrite, LSMean main effect of Concentration: 38.14^d ppm and 38.14 ppm
[3]; Phase I, with 547 ppm sodium erythorbate, 5000 ppm L-arginine, 132° F.
  Residual Nitrite, LSMean Conc × Temp: 41.15^cd ppm
[3]; Phase I, with 547 ppm sodium erythorbate, 5000 ppm L-arginine, 158° F.
  Residual Nitrite, LSMean Conc × Temp: 25.07^d ppm
[3]; Phase I, with 547 ppm sodium erythorbate, 5000 ppm L-arginine, 165° F.
  Residual Nitrite, LSMean Conc × Temp: 48.20^bcd ppm
[3]; Phase I, with 547 ppm sodium erythorbate, 132° F.
  Residual Nitrite, LSMean main effect of Temperature: 48.43 ppm
[3]; Phase I, with 547 ppm sodium erythorbate, 158° F.
  Residual Nitrite, LSMean main effect of Temperature: 55.64 ppm
[3]; Phase I, with 547 ppm sodium erythorbate, 165° F.
  Residual Nitrite, LSMean main effect of Temperature: 53.32 ppm
[3]; Phase II, without 547 ppm sodium erythorbate, 1000 ppm L-arginine
  Residual Nitrite, LSMean main effect of Concentration: 65.37^a ppm and 65.44 ppm
[3]; Phase II, without 547 ppm sodium erythorbate, 1000 ppm L-arginine, 132° F.
  Residual Nitrite, LSMean Conc × Temperature: 87.36^a ppm
[3]; Phase II, without 547 ppm sodium erythorbate, 1000 ppm L-arginine, 158° F.
  Residual Nitrite, LSMean Conc × Temperature: 63.54^ab ppm
[3]; Phase II, without 547 ppm sodium erythorbate, 1000 ppm L-arginine, 165° F.
  Residual Nitrite, LSMean Conc × Temperature: 45.19^ab ppm
[3]; Phase II, without 547 ppm sodium erythorbate, 2000 ppm L-arginine
  Residual Nitrite, LSMean main effect of Concentration: 66.58^a ppm and 72.28 ppm
[3]; Phase II, without 547 ppm sodium erythorbate, 2000 ppm L-arginine, 132° F.
  Residual Nitrite, LSMean Conc × Temperature: 65.60^ab ppm
[3]; Phase II, without 547 ppm sodium erythorbate, 2000 ppm L-arginine, 158° F.
  Residual Nitrite, LSMean Conc × Temperature: 61.51^ab ppm
[3]; Phase II, without 547 ppm sodium erythorbate, 2000 ppm L-arginine, 165° F.
  Residual Nitrite, LSMean Conc × Temperature: 72.63^ab ppm
[3]; Phase II, without 547 ppm sodium erythorbate, 3000 ppm L-arginine
  Residual Nitrite, LSMean main effect of Concentration: 57.60^ab ppm and 54.95 ppm
[3]; Phase II, without 547 ppm sodium erythorbate, 3000 ppm L-arginine, 132° F.
  Residual Nitrite, LSMean Conc × Temperature: 53.90^ab ppm
[3]; Phase II, without 547 ppm sodium erythorbate, 3000 ppm L-arginine, 158° F.
  Residual Nitrite, LSMean Conc × Temperature: 73.59^a ppm
[3]; Phase II, without 547 ppm sodium erythorbate, 3000 ppm L-arginine, 165° F.
  Residual Nitrite, LSMean Conc × Temperature: 45.32^ab ppm
[3]; Phase II, without 547 ppm sodium erythorbate, 4000 ppm L-arginine
  Residual Nitrite, LSMean main effect of Concentration: 60.63^ab ppm and 48.16 ppm
[3]; Phase II, without 547 ppm sodium erythorbate, 4000 ppm L-arginine, 132° F.
  Residual Nitrite, LSMean Conc × Temperature: 67.76^ab ppm
[3]; Phase II, without 547 ppm sodium erythorbate, 4000 ppm L-arginine, 158° F.
  Residual Nitrite, LSMean Conc × Temperature: 52.15^ab ppm
[3]; Phase II, without 547 ppm sodium erythorbate, 4000 ppm L-arginine, 165° F.
  Residual Nitrite, LSMean Conc × Temperature: 61.99^ab ppm
[3]; Phase II, without 547 ppm sodium erythorbate, 5000 ppm L-arginine
  Residual Nitrite, LSMean main effect of Concentration: 45.02^b ppm and 38.14 ppm
[3]; Phase II, without 547 ppm sodium erythorbate, 5000 ppm L-arginine, 132° F.
  Residual Nitrite, LSMean Conc × Temperature: 53.87^ab ppm
[3]; Phase II, without 547 ppm sodium erythorbate, 5000 ppm L-arginine, 158° F.
  Residual Nitrite, LSMean Conc × Temperature: 30.83^b ppm
[3]; Phase II, without 547 ppm sodium erythorbate, 5000 ppm L-arginine, 165° F.
  Residual Nitrite, LSMean Conc × Temperature: 50.37^ab ppm
[3]; Phase II, without 547 ppm sodium erythorbate, 132° F.
  Residual Nitrite, LSMean main effect of Temperature: 65.70 ppm
[3]; Phase II, without 547 ppm sodium erythorbate, 158° F.
  Residual Nitrite, LSMean main effect of Temperature: 56.32^ ppm and 56.32 ppm
[3]; Phase II, without 547 ppm sodium erythorbate, 165° F.
  Residual Nitrite, LSMean main effect of Temperature: 55.10 ppm
3000 ppm L-arginine, Day 1
  water activity (Aw): 0.979
3000 ppm L-arginine, Day 7
  water activity (Aw): 0.978
3000 ppm L-arginine, Day 14
  water activity (Aw): 0.976
3000 ppm L-arginine, Day 28
  water activity (Aw): 0.982
4000 ppm L-arginine, Day 1
  water activity (Aw): 0.979
4000 ppm L-arginine, Day 7
  water activity (Aw): 0.982
4000 ppm L-arginine, Day 14
  water activity (Aw): 0.975
4000 ppm L-arginine, Day 28
  water activity (Aw): 0.975
5000 ppm L-arginine, Day 1
  water activity (Aw): 0.982
5000 ppm L-arginine, Day 7
  water activity (Aw): 0.957
5000 ppm L-arginine, Day 14
  water activity (Aw): 0.972
5000 ppm L-arginine, Day 28
  water activity (Aw): 0.976
[4]; [5]
  NO-Heme: 23.59^ab ppm
  Nitrosylation: 59.68^a %
  Total Heme: 40.35^a ppm
[4]; [6]
  NO-Heme: 17.79^b ppm
  Nitrosylation: 43.64^a %
  Total Heme: 41.71^a ppm
[4]; [7]
  NO-Heme: 28.32^a ppm
  Nitrosylation: 55.59^a %
  Total Heme: 51.00^a ppm
[4]; [8]
  NO-Heme: 27.94^a ppm
  Nitrosylation: 54.26^a %
  Total Heme: 52.81^a ppm
[4]; range over L-arginine frankfurters
  Cure color (nitrosylation): 43.64 to 59.68%
